Experimental data published in PMC3760392 (Bioorganic & medicinal chemistry, 2013).

Tests used:
D3 than D2 receptor = conditions: cited from earlier work
rD3 receptor = rD3 receptor (Rattus norvegicus, UniProt P19020)
rD2L receptor = rD2L receptor (Rattus norvegicus, UniProt P61169); conditions: read-out: Ki (nM), rD2L [3H]spiperone; HEK293 cells, mean ± SEM
Chain of rD2L receptor (P61169 whole entry): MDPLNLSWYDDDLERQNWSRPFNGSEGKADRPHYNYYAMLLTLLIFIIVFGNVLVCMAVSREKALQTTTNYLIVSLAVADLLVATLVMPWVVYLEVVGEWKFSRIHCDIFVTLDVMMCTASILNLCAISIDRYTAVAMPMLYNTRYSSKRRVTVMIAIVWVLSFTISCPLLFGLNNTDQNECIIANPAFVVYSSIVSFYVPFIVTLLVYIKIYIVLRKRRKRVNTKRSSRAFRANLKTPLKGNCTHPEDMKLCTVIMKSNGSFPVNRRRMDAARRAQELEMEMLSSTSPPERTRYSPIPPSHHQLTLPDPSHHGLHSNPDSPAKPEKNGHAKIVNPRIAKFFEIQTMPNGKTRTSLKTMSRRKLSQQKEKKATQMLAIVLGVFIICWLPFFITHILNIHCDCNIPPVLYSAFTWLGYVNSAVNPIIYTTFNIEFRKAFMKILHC

Chain of rD3 receptor (P19020 whole entry): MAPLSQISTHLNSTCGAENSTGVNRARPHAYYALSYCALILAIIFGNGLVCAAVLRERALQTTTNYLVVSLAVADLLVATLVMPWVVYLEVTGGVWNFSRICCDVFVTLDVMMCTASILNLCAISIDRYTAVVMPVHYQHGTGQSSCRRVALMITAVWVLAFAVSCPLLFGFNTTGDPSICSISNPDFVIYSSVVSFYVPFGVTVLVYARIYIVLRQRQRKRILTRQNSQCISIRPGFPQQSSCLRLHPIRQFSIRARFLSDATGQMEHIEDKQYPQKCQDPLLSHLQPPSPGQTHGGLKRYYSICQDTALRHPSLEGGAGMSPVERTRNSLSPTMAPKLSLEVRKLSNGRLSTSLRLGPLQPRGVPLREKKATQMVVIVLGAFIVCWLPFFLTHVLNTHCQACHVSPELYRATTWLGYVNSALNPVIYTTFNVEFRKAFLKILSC

Row | Compound | fold higher affinity for the D3 than D2 receptor (D3 than D2 receptor) | D2L/D3 (rD3 receptor; ratio of Ki rD2L / Ki rD3) | Ki (rD3 receptor; read-out: Ki (nM), rD3 [3H]spiperone, HEK293 cells, mean ± SEM) [nM] | Ki (rD2L receptor) [nM]
1 | CCCN[C@H]1CCc2nc(N)sc2C1 [pramipexole] | 4- to 10 fold |  |  | 
2 | N^6-(2-(4-Phenylpiperazin-1-yl)ethyl)-N^6-propyl-5,6,7,8-tetrahydro-1H-naphtho[2,3-d]imidazole-2,6-diamine [Compound 10e] |  | 8.89 | 1790 | 15900
